Source: ChEMBL document CHEMBL3997792, “Identification of the First Selective Activin Receptor-Like Kinase 1 Inhibitor, a Reversible Version of L-783277” (J Med Chem, 2017)
The source made the active and inactive calls. No cut-off for these calls is given here.

Columns and labels:
[1] = target: T1, Activin receptor type-1-like (Mus musculus) (UniProt Q61288); experiment: Inhibition of BMP9-stimulated ALK1 in mouse C2C12 cells assessed as reduction in Smad1/5 phosphorylation at 10 uM pretreated for 2 hrs followed by BMP9-stimulation after 30 mins by western blot analysis relative to control; type: cell-based
T1 sequence (whole entry): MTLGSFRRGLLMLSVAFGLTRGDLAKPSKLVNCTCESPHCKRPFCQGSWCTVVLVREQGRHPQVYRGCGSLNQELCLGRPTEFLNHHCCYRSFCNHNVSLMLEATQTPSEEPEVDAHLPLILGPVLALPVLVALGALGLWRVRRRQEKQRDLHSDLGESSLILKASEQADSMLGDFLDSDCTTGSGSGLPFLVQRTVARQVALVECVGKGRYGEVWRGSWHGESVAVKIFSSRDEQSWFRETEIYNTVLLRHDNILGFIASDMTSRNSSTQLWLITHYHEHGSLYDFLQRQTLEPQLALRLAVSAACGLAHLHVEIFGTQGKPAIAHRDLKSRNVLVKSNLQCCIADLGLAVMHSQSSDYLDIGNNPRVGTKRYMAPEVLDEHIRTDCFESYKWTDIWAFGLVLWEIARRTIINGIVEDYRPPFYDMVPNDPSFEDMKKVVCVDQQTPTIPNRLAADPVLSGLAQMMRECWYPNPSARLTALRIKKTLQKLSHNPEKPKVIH

[2] = target: T2, Activin receptor type-1-like (Homo sapiens, UniProt P37023); experiment: Inhibition of human ALK1 using casein as substrate in presence of [gamma-33P]-ATP by scintillation counting method
T2 sequence (P37023 whole entry): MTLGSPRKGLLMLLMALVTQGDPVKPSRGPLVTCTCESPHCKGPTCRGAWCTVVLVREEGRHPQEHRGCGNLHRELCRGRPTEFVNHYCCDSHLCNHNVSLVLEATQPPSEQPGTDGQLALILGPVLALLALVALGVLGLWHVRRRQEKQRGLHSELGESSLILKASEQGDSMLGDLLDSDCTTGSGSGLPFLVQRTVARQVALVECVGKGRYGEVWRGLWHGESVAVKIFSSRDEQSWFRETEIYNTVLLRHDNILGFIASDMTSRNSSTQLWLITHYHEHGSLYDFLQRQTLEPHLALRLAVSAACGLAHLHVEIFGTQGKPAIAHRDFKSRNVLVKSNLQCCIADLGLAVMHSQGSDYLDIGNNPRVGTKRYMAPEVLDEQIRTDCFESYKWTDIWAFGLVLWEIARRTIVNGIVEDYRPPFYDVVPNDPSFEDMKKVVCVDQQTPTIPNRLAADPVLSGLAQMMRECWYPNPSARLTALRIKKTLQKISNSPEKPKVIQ

TGF-beta receptor type-1 [3] = target: T3, TGF-beta receptor type-1 (Mus musculus, UniProt Q64729); experiment: Inhibition of ALK5 in mouse C2C12 cells assessed as decrease in TGFbeta1-induced Smad1/5 phosphorylation at 0.1 uM by Western blot method; type: cell-based
T3 sequence (Q64729 whole entry): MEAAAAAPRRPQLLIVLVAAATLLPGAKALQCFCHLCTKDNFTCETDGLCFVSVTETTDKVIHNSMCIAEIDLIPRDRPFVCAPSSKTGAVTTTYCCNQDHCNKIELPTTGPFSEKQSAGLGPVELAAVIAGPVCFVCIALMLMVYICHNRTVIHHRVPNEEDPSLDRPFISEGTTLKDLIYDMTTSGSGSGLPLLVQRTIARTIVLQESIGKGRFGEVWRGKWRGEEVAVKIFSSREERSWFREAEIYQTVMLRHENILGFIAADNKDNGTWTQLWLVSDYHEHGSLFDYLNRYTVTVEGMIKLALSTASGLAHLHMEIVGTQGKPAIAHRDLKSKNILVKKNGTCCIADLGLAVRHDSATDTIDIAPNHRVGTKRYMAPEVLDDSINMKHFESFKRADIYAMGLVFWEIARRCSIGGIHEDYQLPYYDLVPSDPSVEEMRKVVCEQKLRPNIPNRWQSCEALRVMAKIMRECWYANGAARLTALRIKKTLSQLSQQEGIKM

[4] = target: Receptor-type tyrosine-protein kinase FLT3 (Homo sapiens) (UniProt P36888); details: 1 uM
[5] = target: T1, Activin receptor type-1-like (Mus musculus); experiment: Inhibition of BMP9-stimulated ALK1 in mouse C2C12 cells assessed as decrease in MEK phosphorylation at 0.1 to 10 uM pretreated for 2 hrs followed by BMP9-stimulation after 30 mins by western blot analysis; type: cell-based
TGF-beta receptor type-1 [6] = target: T3, TGF-beta receptor type-1; experiment: Inhibition of ALK5 in mouse C2C12 cells assessed as decrease in TGFbeta1-induced Smad2/3 phosphorylation at 0.1 to 10 uM by Western blot method; type: cell-based
[7] = target: T2, Activin receptor type-1-like; experiment: Inhibition of human ALK1 using casein as substrate in presence of 10 uM ATP by radiometric kinase assay
Activin receptor type-1 [8] = target: T4, Activin receptor type-1 (Homo sapiens, UniProt Q04771); experiment: Inhibition of human ALK2 using casein as substrate in presence of 200 uM ATP by radiometric kinase assay
T4 sequence (Q04771 whole entry): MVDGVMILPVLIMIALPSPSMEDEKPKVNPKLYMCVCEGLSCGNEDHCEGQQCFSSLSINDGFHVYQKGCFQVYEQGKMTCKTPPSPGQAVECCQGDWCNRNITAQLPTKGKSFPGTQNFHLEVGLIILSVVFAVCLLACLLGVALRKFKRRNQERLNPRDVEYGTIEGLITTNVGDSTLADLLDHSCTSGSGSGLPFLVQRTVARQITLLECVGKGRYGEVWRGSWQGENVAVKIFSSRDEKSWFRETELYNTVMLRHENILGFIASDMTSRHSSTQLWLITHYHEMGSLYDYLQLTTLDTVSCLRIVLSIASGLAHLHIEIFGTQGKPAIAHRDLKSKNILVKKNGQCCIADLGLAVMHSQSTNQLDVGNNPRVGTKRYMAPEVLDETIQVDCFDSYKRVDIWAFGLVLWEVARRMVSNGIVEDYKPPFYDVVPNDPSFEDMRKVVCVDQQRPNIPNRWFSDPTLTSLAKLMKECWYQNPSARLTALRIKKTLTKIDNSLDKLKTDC

MDA-MB-231 = experiment: Antiproliferative activity against human MDA-MB-231 cells up to 100 uM after 72 hrs by CellTiter 96 non-radioactive cell proliferation assay; type: cell-based; details: mda-mb-231, 72 h
[9] = target: T1, Activin receptor type-1-like (Mus musculus); experiment: Inhibition of BMP9-stimulated ALK1 in mouse C2C12 cells assessed as reduction in Smad1/5 phosphorylation at 0.1 to 1 uM pretreated for 2 hrs followed by BMP9-stimulation after 30 mins by western blot analysis; type: cell-based
[10] = target: ALK4 (activin receptor type-1B) (Homo sapiens, UniProt P36896); experiment: Inhibition of human ALK4 at 10 uM using casein as substrate in presence of 200 uM ATP by radiometric kinase assay relative to control; details: human ALK4 kinase (activin receptor type-1B), probe casein
[11] = target: ALK5 (TGF-beta receptor type-1) (Homo sapiens, UniProt P36897); experiment: Inhibition of human ALK5 at 10 uM using casein as substrate in presence of 200 uM ATP by radiometric kinase assay relative to control; details: human ALK5 kinase (TGF-beta receptor type-1), probe casein
Chain of ALK5 (TGF-beta receptor type-1) (P36897 whole entry): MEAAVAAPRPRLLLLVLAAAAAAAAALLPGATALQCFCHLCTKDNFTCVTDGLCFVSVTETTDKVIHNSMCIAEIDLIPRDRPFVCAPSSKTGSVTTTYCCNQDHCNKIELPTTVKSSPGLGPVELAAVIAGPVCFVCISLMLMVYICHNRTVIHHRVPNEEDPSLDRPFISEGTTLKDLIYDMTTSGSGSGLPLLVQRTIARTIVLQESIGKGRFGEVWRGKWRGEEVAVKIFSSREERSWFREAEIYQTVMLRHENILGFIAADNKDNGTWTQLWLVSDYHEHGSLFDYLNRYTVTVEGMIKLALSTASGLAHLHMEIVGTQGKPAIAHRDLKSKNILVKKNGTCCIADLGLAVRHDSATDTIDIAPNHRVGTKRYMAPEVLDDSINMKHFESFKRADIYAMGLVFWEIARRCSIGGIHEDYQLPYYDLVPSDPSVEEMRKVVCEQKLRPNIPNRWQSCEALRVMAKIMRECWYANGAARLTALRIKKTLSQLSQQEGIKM

[12] = target: T2, Activin receptor type-1-like; details: 1 uM
Description: Inhibition of ALK1 in human A375 cells assessed as decrease in MEK1/2 phosphorylation at 1 uM by western blot analysis

Activin receptor type-1 [13] = target: T4, Activin receptor type-1; experiment: Inhibition of human ALK2 using casein as substrate in presence of 10 uM ATP by radiometric kinase assay
[14] = target: T5, Vascular endothelial growth factor receptor 3 (Homo sapiens, UniProt P35916); details: 1 uM
T5 sequence (P35916 whole entry): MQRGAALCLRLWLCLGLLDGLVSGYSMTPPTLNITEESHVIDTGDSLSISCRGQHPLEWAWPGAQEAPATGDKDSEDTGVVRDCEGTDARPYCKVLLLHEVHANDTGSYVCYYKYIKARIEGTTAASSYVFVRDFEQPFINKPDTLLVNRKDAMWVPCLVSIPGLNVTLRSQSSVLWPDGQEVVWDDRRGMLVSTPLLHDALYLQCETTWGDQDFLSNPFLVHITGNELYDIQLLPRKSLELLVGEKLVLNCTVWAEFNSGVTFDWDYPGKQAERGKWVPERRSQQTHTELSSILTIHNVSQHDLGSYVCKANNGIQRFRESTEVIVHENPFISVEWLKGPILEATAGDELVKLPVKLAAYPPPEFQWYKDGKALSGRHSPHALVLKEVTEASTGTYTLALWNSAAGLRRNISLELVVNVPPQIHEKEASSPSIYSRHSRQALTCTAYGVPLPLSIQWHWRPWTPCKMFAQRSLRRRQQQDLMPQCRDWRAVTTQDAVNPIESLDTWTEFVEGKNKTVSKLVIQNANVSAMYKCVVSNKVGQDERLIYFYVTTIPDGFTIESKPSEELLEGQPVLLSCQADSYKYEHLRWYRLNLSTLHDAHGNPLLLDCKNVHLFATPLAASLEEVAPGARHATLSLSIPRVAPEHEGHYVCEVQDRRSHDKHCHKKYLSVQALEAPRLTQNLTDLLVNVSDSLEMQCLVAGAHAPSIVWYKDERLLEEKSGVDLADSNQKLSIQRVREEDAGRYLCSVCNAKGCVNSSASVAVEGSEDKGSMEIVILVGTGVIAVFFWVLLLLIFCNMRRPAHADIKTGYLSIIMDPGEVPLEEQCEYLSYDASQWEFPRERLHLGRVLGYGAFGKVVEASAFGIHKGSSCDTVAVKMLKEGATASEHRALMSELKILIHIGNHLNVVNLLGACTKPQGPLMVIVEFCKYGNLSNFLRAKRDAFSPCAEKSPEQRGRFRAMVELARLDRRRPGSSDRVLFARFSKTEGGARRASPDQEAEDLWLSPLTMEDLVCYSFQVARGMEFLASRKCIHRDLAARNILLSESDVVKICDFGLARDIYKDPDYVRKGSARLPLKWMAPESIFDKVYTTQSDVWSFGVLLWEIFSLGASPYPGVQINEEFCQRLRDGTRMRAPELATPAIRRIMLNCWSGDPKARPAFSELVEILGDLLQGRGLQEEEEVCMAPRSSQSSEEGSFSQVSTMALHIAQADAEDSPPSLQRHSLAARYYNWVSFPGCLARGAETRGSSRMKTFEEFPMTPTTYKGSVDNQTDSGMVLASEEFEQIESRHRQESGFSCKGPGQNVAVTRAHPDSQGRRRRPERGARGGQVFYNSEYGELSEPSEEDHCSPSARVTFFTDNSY
Description: Inhibition of human FLT4 at 1 uM using poly[Glu:Tyr] (4:1) as substrate in presence of [gamma-33P]-ATP by scintillation counting method relative to control

[15] = target: Bone morphogenetic protein receptor type-1B (Homo sapiens, UniProt O00238); experiment: Inhibition of human ALK6 using casein as substrate in presence of 10 uM ATP by radiometric kinase assay
HUVEC [16] = experiment: Angiogenic activity in HUVEC assessed as increase in angiogenic sprouting in presence of recombinant human VEGF165 by microfluidic chip based 3D angiogenesis assay; type: functional, cell-based
TGF-beta receptor type-1 [17] = target: TGF-beta receptor type-1 (Homo sapiens, UniProt P36897); experiment: Inhibition of human ALK5 using casein as substrate in presence of 10 uM ATP by radiometric kinase assay
Chain of TGF-beta receptor type-1 (Homo sapiens, UniProt P36897) (P36897 whole entry): as the sequence (P36897 whole entry) above

TGF-beta receptor type-1 [18] = target: T3, TGF-beta receptor type-1; experiment: Inhibition of ALK5 in mouse C2C12 cells assessed as decrease in TGFbeta1-induced Smad1/5 phosphorylation at 10 uM by Western blot method; type: cell-based
[19] = target: T1, Activin receptor type-1-like (Mus musculus); experiment: Inhibition of ALK1 in mouse C2C12 cells assessed as downregulation of BMP9-induced Id1 mRNA levels at 10 uM pretreated for 2 hrs followed by BMP9-stimulation after 30 mins by RT-PCR analysis; type: cell-based
[20] = target: Dual specificity mitogen-activated protein kinase kinase 6 (Homo sapiens, UniProt P52564); experiment: Inhibition of human MKK6 using p38a as substrate in presence of [gamma-33P]-ATP by scintillation counting method
Chain of Dual specificity mitogen-activated protein kinase kinase 6 (P52564 whole entry): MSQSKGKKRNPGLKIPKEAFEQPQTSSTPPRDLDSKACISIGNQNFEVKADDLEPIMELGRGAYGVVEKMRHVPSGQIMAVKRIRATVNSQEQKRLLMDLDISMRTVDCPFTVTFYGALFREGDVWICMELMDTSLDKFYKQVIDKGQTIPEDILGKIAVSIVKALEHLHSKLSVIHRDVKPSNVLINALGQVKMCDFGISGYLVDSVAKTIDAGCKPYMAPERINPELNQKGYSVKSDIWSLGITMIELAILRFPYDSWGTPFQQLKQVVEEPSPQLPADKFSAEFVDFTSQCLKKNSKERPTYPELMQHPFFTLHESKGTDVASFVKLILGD

[21] = target: T2, Activin receptor type-1-like; details: 1 uM; remark: listed apart in the source
Description: Inhibition of human ALK1 at 1 uM using casein as substrate in presence of [gamma-33P]-ATP by scintillation counting method relative to control

[22] = target: T6, Vascular endothelial growth factor receptor 2 (Homo sapiens, UniProt P35968); experiment: Inhibition of human KDR using poly[Glu:Tyr] (4:1) as substrate in presence of [gamma-33P]-ATP by scintillation counting method
T6 sequence (P35968 whole entry): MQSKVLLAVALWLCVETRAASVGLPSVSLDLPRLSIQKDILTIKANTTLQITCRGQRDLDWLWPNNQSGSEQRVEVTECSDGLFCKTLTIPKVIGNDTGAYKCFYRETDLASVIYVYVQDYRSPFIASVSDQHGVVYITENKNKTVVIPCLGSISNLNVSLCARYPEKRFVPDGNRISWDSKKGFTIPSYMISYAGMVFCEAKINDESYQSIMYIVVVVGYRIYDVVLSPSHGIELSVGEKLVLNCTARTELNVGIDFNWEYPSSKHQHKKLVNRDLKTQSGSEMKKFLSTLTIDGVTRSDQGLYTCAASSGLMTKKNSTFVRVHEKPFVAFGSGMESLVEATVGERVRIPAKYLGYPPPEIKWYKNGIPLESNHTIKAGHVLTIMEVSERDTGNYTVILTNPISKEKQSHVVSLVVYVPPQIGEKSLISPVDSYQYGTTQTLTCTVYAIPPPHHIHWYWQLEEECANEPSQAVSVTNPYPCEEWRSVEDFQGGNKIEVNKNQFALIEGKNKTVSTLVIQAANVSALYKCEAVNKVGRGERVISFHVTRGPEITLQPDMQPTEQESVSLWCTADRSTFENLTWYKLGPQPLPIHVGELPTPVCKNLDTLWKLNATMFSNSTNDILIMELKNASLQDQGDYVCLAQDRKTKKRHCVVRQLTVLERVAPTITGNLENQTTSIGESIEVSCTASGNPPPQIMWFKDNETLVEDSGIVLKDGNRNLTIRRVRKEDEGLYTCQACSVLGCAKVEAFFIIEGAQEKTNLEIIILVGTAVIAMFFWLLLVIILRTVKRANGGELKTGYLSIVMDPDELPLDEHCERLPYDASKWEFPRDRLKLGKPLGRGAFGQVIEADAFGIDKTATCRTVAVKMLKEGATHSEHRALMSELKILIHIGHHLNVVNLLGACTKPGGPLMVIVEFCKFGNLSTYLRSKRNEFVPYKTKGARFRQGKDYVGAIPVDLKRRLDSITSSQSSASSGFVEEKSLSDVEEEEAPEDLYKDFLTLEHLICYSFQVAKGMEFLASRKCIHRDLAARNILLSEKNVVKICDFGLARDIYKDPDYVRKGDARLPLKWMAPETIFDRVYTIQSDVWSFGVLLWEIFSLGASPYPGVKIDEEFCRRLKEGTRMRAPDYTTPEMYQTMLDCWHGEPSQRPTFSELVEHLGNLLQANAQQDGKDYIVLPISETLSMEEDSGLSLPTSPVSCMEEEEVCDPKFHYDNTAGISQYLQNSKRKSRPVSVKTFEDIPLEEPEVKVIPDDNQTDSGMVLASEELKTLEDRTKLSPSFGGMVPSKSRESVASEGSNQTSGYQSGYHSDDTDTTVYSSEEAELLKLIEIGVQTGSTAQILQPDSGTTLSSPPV

[23] = target: T2, Activin receptor type-1-like; experiment: Inhibition of human ALK1 using casein as substrate in presence of 200 uM ATP by radiometric kinase assay
[24] = target: T1, Activin receptor type-1-like (Mus musculus); experiment: Inhibition of BMP9-stimulated ALK1 in mouse C2C12 cells assessed as decrease in ERK1/2 phosphorylation at 0.1 to 10 uM pretreated for 2 hrs followed by BMP9-stimulation after 30 mins by western blot analysis; type: cell-based
HUVEC [25] = experiment: Angiogenic activity in HUVEC assessed as increase in vessel areas at 2 to 50 uM by microfluidic chip based 3D angiogenesis assay; type: functional, cell-based; details: Homo sapiens
[26] = target: T5, Vascular endothelial growth factor receptor 3; experiment: Inhibition of human FLT4 using poly[Glu:Tyr] (4:1) as substrate in presence of [gamma-33P]-ATP by scintillation counting method
[27] = target: ALK6 (bone morphogenetic protein receptor type-1B) (Homo sapiens, UniProt O00238); experiment: Inhibition of human ALK6 at 10 uM using casein as substrate in presence of 200 uM ATP by radiometric kinase assay relative to control; details: probe casein
HUVEC [28] = experiment: Angiogenic activity in HUVEC assessed as increase in angiogenic sprouting at 2 to 50 uM by microfluidic chip based 3D angiogenesis assay; type: functional, cell-based; details: Homo sapiens
Activin receptor type-1B = Activin receptor type-1B (Homo sapiens, UniProt P36896); experiment: Inhibition of human ALK4 using casein as substrate in presence of 10 uM ATP by radiometric kinase assay
[29] = target: Dual specificity mitogen-activated protein kinase kinase 6 (Homo sapiens) (UniProt P52564); experiment: Inhibition of human MKK6 at 1 uM using p38a as substrate in presence of [gamma-33P]-ATP by scintillation counting method relative to control
Chain of Dual specificity mitogen-activated protein kinase kinase 6 (Homo sapiens) (P52564 whole entry): as the sequence (P52564 whole entry) above

HUVEC [30] = experiment: Angiogenic activity in HUVEC assessed as increase in sprout length at 2 to 50 uM by microfluidic chip based 3D angiogenesis assay; type: functional, cell-based; details: Homo sapiens
[31] = target: T1, Activin receptor type-1-like (Mus musculus); experiment: Inhibition of BMP9-stimulated ALK1 in mouse C2C12 cells assessed as decrease in p38 phosphorylation at 0.1 to 10 uM pretreated for 2 hrs followed by BMP9-stimulation after 30 mins by western blot analysis; type: cell-based
[32] = target: Bone morphogenetic protein receptor type-1A (Homo sapiens, UniProt P36894); experiment: Inhibition of human ALK3 using casein as substrate in presence of 10 uM ATP by radiometric kinase assay
[33] = target: T1, Activin receptor type-1-like (Mus musculus); experiment: Inhibition of ALK1 in mouse C2C12 cells assessed as downregulation of BMP9-induced Id1 protein levels at 10 uM pretreated for 2 hrs followed by BMP9-stimulation after 30 mins by western blot analysis; type: cell-based
[34] = target: T1, Activin receptor type-1-like (Mus musculus); experiment: Inhibition of BMP9-stimulated ALK1 in mouse C2C12 cells assessed as decrease in AKT phosphorylation at S473 at 0.1 to 10 uM pretreated for 2 hrs followed by BMP9-stimulation after 30 mins by western blot analysis; type: cell-based
HUVEC [35] = experiment: Angiogenic activity in HUVEC assessed as increase in vascular endothelial tube formation incubated for 6 hrs measured every 3 hrs by matrigel based light microscopic analysis; type: functional, cell-based; details: Homo sapiens
[36] = target: ALK3 (bone morphogenetic protein receptor type-1A) (Homo sapiens, UniProt P36894); experiment: Inhibition of human ALK3 at 10 uM using casein as substrate in presence of 200 uM ATP by radiometric kinase assay relative to control; details: probe casein
[37] = target: T6, Vascular endothelial growth factor receptor 2; details: 1 uM
Description: Inhibition of human KDR at 1 uM using poly[Glu:Tyr] (4:1) as substrate in presence of [gamma-33P]-ATP by scintillation counting method relative to control

COc1cc(O)c2c(c1)CCC[C@H](O)[C@H](O)[C@H](O)CCC[C@H](C)OC2=O
inhibition [1]: Active
IC50 [2]: 1780 nM

C=C1CCC[C@H](C)OC(=O)c2c(O)cc(OC)cc2CCC[C@H](O)[C@@H]1O
inhibition [1]: 70 to 80%
IC50 [2]: 1260 nM

c1ccc2c(-c3cnn4cc(-c5ccc(N6CCNCC6)cc5)cnc34)ccnc2c1
inhibition (INH) (TGF-beta receptor type-1 [3]): Active

COc1cc(O)c2c(c1)CCC[C@H](O)[C@H](O)C(=O)CCC[C@H](C)OC2=O
inhibition [4]: > 80%
inhibition [5]: inactive
inhibition (INH) (TGF-beta receptor type-1 [6]): Not Active
IC50 [7]: 62 nM
IC50 (Activin receptor type-1 [8]): 3350 nM
Activity (MDA-MB-231): Non-Toxic
inhibition [9]: Active
inhibition at 10 µM [10]: < 40%
inhibition at 10 µM [11]: < 40%
inhibition [12]: Active
IC50 (Activin receptor type-1 [13]): 217 nM
inhibition [14]: > 80%
IC50 [15]: 727 nM
Activity (HUVEC [16]): Dose-dependent effect
IC50 (TGF-beta receptor type-1 [17]): 7210 nM
inhibition (INH) (TGF-beta receptor type-1 [18]): Active
inhibition [19]: Active
IC50 [20]: > 10000 nM
inhibition [21]: > 80%
IC50 [22]: 163 nM
IC50 [23]: 1210 nM
inhibition [24]: inactive
Activity (HUVEC [25]): Active
IC50 [26]: 114 nM
inhibition at 10 µM [27]: < 40%
Activity (HUVEC [28]): Active
IC50 (Activin receptor type-1B): 2760 nM
inhibition [29]: 89%
Activity (HUVEC [30]): Active
inhibition [31]: inactive
inhibition [1]: 100%
IC50 [32]: 6270 nM
IC50 [2]: 62 nM
inhibition [33]: Active
inhibition [34]: inactive
Activity (HUVEC [35]): Dose-dependent effect
inhibition at 10 µM [36]: < 40%
inhibition [37]: > 80%
